Results from US20240336602A1 (Katholieke Universiteit Leuven, priority 2020, published 2024).

Biological target: T1, mouse TRPM3a2 (mTRPM3) ion channel (Mus musculus, UniProt J9SQF3)
T1 construct: expressed in transfected cells; host or cells: flip-in HEK293
Test: TRPM3 ion channel driven Ca2+ uptake, Fluo-4 AM assay (PS-stimulated, overexpressing flip-in HEK293 cells)
Assay type: cell-based
Conditions: PS (50 μM) stimulated
Description: In order to monitor the inhibition of the mouse TRPM3a2 (mTRPM3) ion channel by the compounds of the invention, a cellular system making use of an mTRPM3alpha2 or hTRPM3 overexpressing cell line (flip-in HEK293) was used. The TRPM3 channel was stimulated/opened with Pregnenolone sulfate (PS) (50 μM) which results in Ca^2+ influx.
For mTRPM3, the intracellular Ca^2+ was measured with a Calcium responsive dye, Fluor-4 AM ester (Invitrogen). Cells were cultured until a confluence of 80-90%, washed with Versene (Invitrogen) and detached from the surface by a short incubation with 0.05% Trypsin (Invitrogen). The trypsination process was stopped by the addition of complete cell culture medium (DMEM, glutamax, 10% FCS, NEAA, Pen-Strep). Cells were collected and resuspended in Krebs buffer without Calcium at RT.
Prior the cell seeding (±2000 cells/well into a black, 384 well plate (Greiner)) the diluted compound was added in the assay plate, together with the PS dissolved in Krebs buffer containing Calcium. […] Directly after cell addition the plates were read on an Envision fluorescence reader (Perkin Elmer) by an Excitation of 485 nm and emission at 535 nm.
Channel inhibition was calculated compared to a non-PS stimulated control versus a condition stimulated with PS (50 μM) with vehicle. The ability of the compounds of the invention to inhibit this activity was determined as: Percentage inhibition=[1-((RFU determined for sample with test compound present—RFU determined for sample with positive control inhibitor) divided by (RFU determined in the presence of vehicle—RFU determined for sample with positive control inhibitor))]*100.

T1 sequence (J9SQF3 1-1709 isoform J9SQF3-12): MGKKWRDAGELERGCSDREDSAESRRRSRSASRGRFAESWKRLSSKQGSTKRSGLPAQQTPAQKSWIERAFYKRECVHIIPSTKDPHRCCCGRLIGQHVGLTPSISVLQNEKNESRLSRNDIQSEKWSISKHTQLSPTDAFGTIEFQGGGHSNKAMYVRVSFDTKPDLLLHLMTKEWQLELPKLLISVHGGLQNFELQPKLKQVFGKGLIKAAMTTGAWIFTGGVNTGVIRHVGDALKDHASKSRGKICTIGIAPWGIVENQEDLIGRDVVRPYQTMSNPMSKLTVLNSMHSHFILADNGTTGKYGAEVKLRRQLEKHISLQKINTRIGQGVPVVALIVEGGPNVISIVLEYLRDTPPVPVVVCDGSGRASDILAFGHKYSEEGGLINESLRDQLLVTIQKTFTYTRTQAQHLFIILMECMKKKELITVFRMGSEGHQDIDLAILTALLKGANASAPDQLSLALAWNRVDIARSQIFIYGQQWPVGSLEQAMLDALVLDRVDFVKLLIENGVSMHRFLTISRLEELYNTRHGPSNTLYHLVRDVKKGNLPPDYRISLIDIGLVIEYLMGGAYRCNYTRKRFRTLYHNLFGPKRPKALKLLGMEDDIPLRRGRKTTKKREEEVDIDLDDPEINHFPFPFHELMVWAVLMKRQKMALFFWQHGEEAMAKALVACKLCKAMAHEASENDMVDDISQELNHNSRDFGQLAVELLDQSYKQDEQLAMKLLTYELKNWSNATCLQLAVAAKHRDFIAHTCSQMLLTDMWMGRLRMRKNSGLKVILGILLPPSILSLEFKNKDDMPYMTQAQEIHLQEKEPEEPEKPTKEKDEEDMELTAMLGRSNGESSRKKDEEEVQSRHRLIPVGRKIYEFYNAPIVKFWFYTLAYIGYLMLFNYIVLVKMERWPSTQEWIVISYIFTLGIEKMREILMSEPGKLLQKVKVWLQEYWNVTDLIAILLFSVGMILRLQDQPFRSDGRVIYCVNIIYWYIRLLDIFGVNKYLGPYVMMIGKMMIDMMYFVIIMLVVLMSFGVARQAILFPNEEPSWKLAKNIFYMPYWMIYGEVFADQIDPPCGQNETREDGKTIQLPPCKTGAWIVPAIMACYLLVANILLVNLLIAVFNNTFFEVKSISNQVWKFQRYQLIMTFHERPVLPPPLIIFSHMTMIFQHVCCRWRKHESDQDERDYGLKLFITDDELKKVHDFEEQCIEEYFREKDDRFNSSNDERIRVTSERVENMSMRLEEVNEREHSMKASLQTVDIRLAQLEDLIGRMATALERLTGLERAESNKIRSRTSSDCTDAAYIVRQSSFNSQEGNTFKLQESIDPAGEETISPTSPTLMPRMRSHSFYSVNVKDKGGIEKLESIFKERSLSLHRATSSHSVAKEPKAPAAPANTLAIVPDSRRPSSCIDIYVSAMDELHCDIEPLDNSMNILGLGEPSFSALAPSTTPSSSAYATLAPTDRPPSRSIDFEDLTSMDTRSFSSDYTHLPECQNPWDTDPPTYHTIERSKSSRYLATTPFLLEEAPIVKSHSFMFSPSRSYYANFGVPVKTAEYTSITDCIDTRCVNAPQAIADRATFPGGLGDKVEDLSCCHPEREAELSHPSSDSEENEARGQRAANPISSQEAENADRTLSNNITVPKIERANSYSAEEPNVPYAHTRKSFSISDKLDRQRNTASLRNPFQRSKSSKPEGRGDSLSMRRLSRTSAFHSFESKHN

Row | SMILES | IC50 (cpds. 500-599) | IC50 (cpds. 600-666) | other results
1 | Cc1ncc(COc2ccc3oc(C)c(C(=O)NC4(C(N)=O)CCCOC4)c3c2)s1 (single isomer, unassigned) [590 - En 1] | ≤ 1000 nM | – | –
2 | Cc1ncccc1COc1ccc2oc(C)c(C(=O)NC3(C(N)=O)CCOC3)c2c1 (single isomer, unassigned) [591 - En 1] | ≤ 1000 nM | – | –
3 | Cc1ncccc1COc1ccc2oc(C)c(C(=O)NC3(C(N)=O)CCOC3)c2c1 (single isomer, unassigned) [591 - En 2] | ≤ 1000 nM | – | –
4 | Cc1ncc(COc2ccc3oc(C)c(C(=O)NC4(C(N)=O)CCOC4)c3c2)s1 (single isomer, unassigned) [592 - En 1] | ≤ 1000 nM | – | –
5 | Cc1ncsc1COc1ccc2oc(C)c(C(=O)NC3(C(N)=O)CCOC3)c2c1 (single isomer, unassigned) [593 - En 1] | ≤ 1000 nM | – | –
6 | Cc1ccc(COc2ccc3oc(C)c(C(=O)NC4(C(N)=O)CCOC4)c3c2)cn1 (single isomer, unassigned) [594 - En 1] | ≤ 1000 nM | – | –
7 | Cc1ccc(COc2ccc3oc(C)c(C(=O)NC4(C(N)=O)CCOC4)c3c2)cn1 (single isomer, unassigned) [594 - En 2] | ≤ 1000 nM | – | –
8 | Cc1oc2ccc(OCc3ccccn3)cc2c1C(=O)NC1(C(N)=O)CCOC1 (single isomer, unassigned) [595 - En 1] | ≤ 1000 nM | – | –
9 | COc1ncccc1COc1ccc2oc(C)c(C(=O)NC3(C(N)=O)CCOC3)c2c1 (single isomer, unassigned) [597 - En 1] | ≤ 1000 nM | – | –
10 | Cc1oc2ccc(OCc3c(F)cnn3C)cc2c1C(=O)NC1(C(N)=O)CCOC1 (single isomer, unassigned) [598 - En 1] | ≤ 1000 nM | – | –
11 | CNC(=O)C(CO)NC(=O)c1c(C)oc2ccc(OCc3scnc3C)cc12 (single isomer, unassigned) [600 - En 1] | – | ≤ 1000 nM | –
12 | CNC(=O)C(CO)NC(=O)c1c(C)oc2ccc(OCc3ccccn3)cc12 (single isomer, unassigned) [601 - En 1] | – | ≤ 1000 nM | –
13 | CNC(=O)C(CO)NC(=O)c1c(C)oc2ccc(OCc3ccccn3)cc12 (single isomer, unassigned) [601 - En 2] | – | ≤ 1000 nM | –
14 | Cc1oc2ccc(OCc3ccccn3)cc2c1C(=O)NC1(CO)CCCNC1=O (single isomer, unassigned) [719 - En 1] | – | – | IC50 (cpds. 667-751): ≤ 1000 nM
15 | COc1ncccc1COc1ccc2oc(C)c(C(=O)NC(C)(CO)C(N)=O)c2c1 (single isomer, unassigned) [720 - En 1] | – | – | IC50 (cpds. 667-751): ≤ 1000 nM
16 | Cc1ncc(COc2ccc3oc(C)c(C(=O)NC4(C(N)=O)CCOC4)c3c2)o1 (single isomer, unassigned) [725 - En 1] | – | – | IC50 (cpds. 667-751): ≤ 1000 nM
17 | Cc1ncsc1COc1ccc2oc(C)c(C(=O)NC3(CO)CCNC3)c2c1 (single isomer, unassigned) [728 - En 1] | – | – | IC50 (cpds. 667-751): 1000 to 20000 nM
18 | Cc1ncsc1COc1ccc2oc(C)c(C(=O)NC3(CO)CCNC3)c2c1 (single isomer, unassigned) [728 - En 2] | – | – | IC50 (cpds. 667-751): ≤ 1000 nM
19 | Cc1ncsc1COc1ccc2oc(C)c(C(=O)NC(Cn3cncn3)C(N)=O)c2c1 (single isomer, unassigned) [729 - En 1] | – | – | IC50 (cpds. 667-751): ≤ 1000 nM

Second part, led by results:

Row | IC50 (cpds. 500-599) | IC50 (cpds. 600-666) | SMILES | other results
20 | – | ≤ 1000 nM | Cc1oc2ccc(OCc3cccnc3O)cc2c1C(=O)NC1CNCC1(F)F (single isomer, unassigned) [640 - En 1] | –
21 | – | ≤ 1000 nM | Cc1oc2ccc(OCc3ccnn3C)cc2c1C(=O)NC1COCC1O (single isomer, unassigned) [655 - En 1] | –
22 | – | ≤ 1000 nM | Cc1oc2ccc(OCc3ccnn3C)cc2c1C(=O)NC1COCC1O (single isomer, unassigned) [655 - En 2] | –
23 | – | 1000 to 20000 nM | Cc1oc2ccc(OCc3ccnn3C)cc2c1C(=O)NC1COCC1O (single isomer, unassigned) [656 - En 1] | –
24 | – | 1000 to 20000 nM | Cc1oc2ccc(OCc3ccnn3C)cc2c1C(=O)NC1COCC1O (single isomer, unassigned) [656 - En 2] | –
25 | – | ≥ 20000 nM | NC(=O)c1oc2ccc(OCc3cccnc3C(F)(F)F)cc2c1C(=O)NC1CCNCC1(F)F (single isomer, unassigned) [657 - En 1, N3-(3,3-difluoropiperidin-4-yl)-5-((2-(trifluoromethyl)pyridin-3-yl)methoxy)benzofuran-2,3-dicarboxamide] | –
